≈ marks a conversion by molar mass, not a printed value. Where two headings read alike, the source gives them in different places.
Assays:
[1] = Urine sample
Protocol: (§1) The mice were purchased from Beijing Weili Tonghua Experimental Animal Technology Co., Ltd. Based on the weight, the mice were randomly divided into 5 groups, with each group including 3 animals.
(§2) Before the pharmacokinetic test, the mice were fasted for 16 hours. […] 200 μl of blood was collected at preset timepoint by jugular vein puncture after administration. For the animal group subjected to intravenous administration, blood was collected at minute 0, minute 15, minute 30, hour 1, hour 2, hour 4, hour 8 and hour 24 after administration. Urine was collected at hour 2, hour 4, hour 8, hour 12 and hour 24. The blood was collected in a sample tube containing EDTA and blood sample was immediately centrifuged at 4000 rpm at 4° C. for 5 minutes. The plasma was transferred to another sample tube and stored at minus 20° C.
(§3) The following method and apparatus were used:
(§4) Mobile phase: 100% of acetonitrile (3 mM ammonium acetate) and 100% of water (3 mM ammonium acetate) Quantitation method: internal standard method

[2] = Solubility study
[3] = Stability experiments under 25° C.±2° C. and 65% R.H±5% R.H; settings: 25° C./65% R.H
Description: • 1. […] The results are shown in detail in the following table.

[4] = Stability experiments under 40° C.±2° C. and 75% R.H±5% R.H (accelerated test); type: physicochemical; settings: 40° C./75% R.H
[5] = in vivo; settings: female, mouse, 1 mg/kg
Protocol: as §1, §2, §3, §4

[6] = Hygroscopicity study (Chinese Pharmacopoeia 2015, 9103); type: physicochemical; settings: for Hygroscopic weight gain: 25° C.±1° C., saturated ammonium chloride solution, 24 hours; for Conclusion (hygroscopicity): after 24 hours
Protocol: Test method: • 1. A dried glass weighing bottle with stopper (having an outer diameter of 50 mm and a height of 15 mm) was placed in a thermostatic drier (a saturated ammonium chloride solution was placed on the lower part of the thermostatic drier) at an appropriate temperature of 25° C.±1° C. on the day earlier before the test, and the weight (m1) of weighing bottle was precisely weighed. • 2. An appropriate amount of test sample was taken and spread in the weighing bottle, and the thickness of the test sample was controlled to about 1 mm, and the weight (m2) was precisely weighed. • 3. The weighing bottle was opened and was placed, together with the bottle cap, under the above mentioned constant temperature and humidity condition for 24 hours. • 4. The weighing bottle was capped and precisely weighed to obtain the weight (m3).
Description of hygroscopicity characterization and delimitation of hygroscopicity weight gain: Deliquescence: enough moisture is absorbed to form a liquid. […] Slightly hygroscopic: hygroscopic weight gain is less than 2% but not less than 0.2%. Not or hardly hygroscopic: hygroscopic weight gain is less than 0.2%.

[7] = background statement; cited from earlier work
[8] = day 5, High temperature of 40° C.
[9] = day 10, High temperature of 40° C.

## CC[C@@H]([C@H](C)OP(=O)(O)O)n1ncn(-c2ccc(N3CCN(c4ccc(OC[C@@H]5CO[C@@](Cn6cncn6)(c6ccc(F)cc6F)C5)cc4)CC3)cc2)c1=O [Example 1, Posaconazole Phosphate Monocholinate]
[1]; 0~2 h, 1 mg/kg intravenous
  Concentration of the compound in Example 1: 149.1 ng/mL
[1]; 2~4 h
  Concentration of the compound in Example 1: 641.6 ng/mL
[1]; 4~8 h
  Concentration of the compound in Example 1: 973.0 ng/mL
[1]; 8~12 h
  Concentration of the compound in Example 1: 716.5 ng/mL
[1]; 12~24 h
  Concentration of the compound in Example 1: 400.9 ng/mL
[2]; organic solvent or mixture, Solubility, Methanol, in methanol
  solubility: 35000 µg/mL
[2]; water, Solubility, in water
  solubility: 82000 µg/mL
[3]; up to month 24
  stability (conclusion in words): higher than that of the compounds in Comparative examples 1˜11
[3]; month 0
  Content: 99.87%
  Description: White
  Related substance: 0.13%
[3]; month 3
  Content: 99.87%
  Description: White
  Related substance: 0.13%
[3]; month 6
  Content: 99.87%
  Description: White
  Related substance: 0.13%
[3]; month 9
  Content: 99.85%
  Description: White
  Related substance: 0.15%
[3]; month 12
  Content: 99.84%
  Description: White
  Related substance: 0.16%
[3]; month 24
  Content: 99.80%
  Description: White
  Related substance: 0.20%
[4]; month 0
  Content: 99.87%
  Description: White
  Related substance: 0.13%
[4]; month 1
  Content: 99.87%
  Description: White
  Related substance: 0.13%
[4]; month 2
  Content: 99.86%
  Description: White
  Related substance: 0.14%
[4]; month 3
  Content: 99.85%
  Description: White
  Related substance: 0.15%
[4]; month 6
  Content: 99.84%
  Description: White
  Related substance: 0.16%
[5]; plasma, iv
  concentration at 0.25 h: 5560 ng/mL
  concentration at 0.5 h: 7040 ng/mL
  concentration at 1 h: 7630 ng/mL
  concentration at 2 h: 8270 ng/mL
  concentration at 4 h: 7520 ng/mL
  concentration at 8 h: 7780 ng/mL
  concentration at 24 h: 7920 ng/mL
[5]; urine, intravenous
  concentration at 24 h: 0 ng/mL
Day 0
  Content: 99.87%
  Description: White
  Related substance: 0.13%
Day 5, High humidity of 92.5%
  Content: 99.86%
  Description: White
  Related substance: 0.14%
[8]
  Content: 99.87%
  Description: White
  Related substance: 0.13%
Day 5, Illumination of 4500LX
  Content: 99.87%
  Description: White
  Related substance: 0.13%
Day 10, High humidity of 92.5%
  Content: 99.86%
  Description: White
  Related substance: 0.14%
[9]
  Content: 99.85%
  Description: White
  Related substance: 0.15%
Day 10, Illumination of 4500LX
  Content: 99.86%
  Description: White
  Related substance: 0.14%
[6]
  Hygroscopic weight gain: 0.12%
  Conclusion (hygroscopicity): No hygroscopicity

## CC[C@@H]([C@H](C)OP(=O)(O)O)n1ncn(-c2ccc(N3CCN(c4ccc(OC[C@@H]5CO[C@@](Cn6cncn6)(c6ccc(F)cc6F)C5)cc4)CC3)cc2)c1=O [Example 3, Posaconazole Phosphate Monocholinate Pentahydrate]
[3]; month 0
  Content: 99.37%
  Description: White
  Related substance: 0.13%
[3]; month 3
  Content: 99.87%
  Description: White
  Related substance: 0.13%
[3]; month 6
  Content: 99.87%
  Description: White
  Related substance: 0.13%
[3]; month 9
  Content: 99.84%
  Description: White
  Related substance: 0.16%
[3]; month 12
  Content: 99.84%
  Description: White
  Related substance: 0.16%
[3]; month 24
  Content: 99.79%
  Description: White
  Related substance: 0.21%
[4]; month 0
  Content: 99.87%
  Description: White
  Related substance: 0.13%
[4]; month 1
  Content: 99.87%
  Description: White
  Related substance: 0.13%
[4]; month 2
  Content: 99.87%
  Description: White
  Related substance: 0.13%
[4]; month 3
  Content: 99.86%
  Description: White
  Related substance: 0.14%
[4]; month 6
  Content: 99.85%
  Description: White
  Related substance: 0.15%
Day 0
  Content: 99.87%
  Description: White
  Related substance: 0.13%
Day 5, High humidity of 92.5%
  Content: 99.86%
  Description: White
  Related substance: 0.14%
[8]
  Content: 99.87%
  Description: White
  Related substance: 0.13%
Day 5, Illumination of 4500LX
  Content: 99.87%
  Description: White
  Related substance: 0.13%
Day 10, High humidity of 92.5%
  Content: 99.86%
  Description: White
  Related substance: 0.14%
[9]
  Content: 99.85%
  Description: White
  Related substance: 0.15%
Day 10, Illumination of 4500LX
  Content: 99.86%
  Description: White
  Related substance: 0.14%
[6]
  Hygroscopic weight gain: 0.15%
  Conclusion (hygroscopicity): No hygroscopicity

## CC[C@@H]([C@H](C)O)n1ncn(-c2ccc(N3CCN(c4ccc(OC[C@@H]5CO[C@@](Cn6cncn6)(c6ccc(F)cc6F)C5)cc4)CC3)cc2)c1=O [Posaconazole]
[2]; isopropanol, organic solvent or mixture
  solubility: 100 µg/mL (≈ 143 µM)
[2]; methanol, organic solvent or mixture
  solubility: 60 µg/mL (≈ 85.6 µM)
[2]; water
  solubility: 50 µg/mL (≈ 71.3 µM)

## sulfobutyl ether-β-cyclodextrin
[7]
  preclinical toxicology finding: causes vacuolization of the urothelial cells and activation of the macrophages in the liver and lung

Source: patent US20210147455A1 (SHAANXI SYNTHETIC PHARMACEUTICAL CO., LTD., priority 2018, published 2021)
